According to patent US9938301B2, “Dihydropyrimido fused ring derivative as HBV inhibitor” (QILU PHARMACEUTICAL CO., LTD., priority 2014, dated 2018):

Tested on: HBV DNA in HepG2.2.15 cells
Test: HBV in vitro dot-blot hybridization test
Assay type: cell-based, Hepatitis B virus
Details: Hepatitis B virus, HepG2.2.15, dot-blot hybridization assay, read-out: Concentration for 50% inhibition of HBV (EC50)value
Procedure: • 1. Purpose of the test: • The content of HBV DNA in HepG2.2.15 cells was detected by dot-blot hybridization test to evaluate an inhibitory action of the compound on HBV with an EC50 value as an indicator. • 2. Experimental materials: • 2.1 Cell lines: HepG2.2.15 Cells • HepG2.2.15 cell culture media (DMEM/F12, Invitrogen-11330057; 10% serum Invitrogen-10099141; 100 units/mL Penicillin and 10 μg/mL Streptomycin, Invitrogen-15140122; 1% non-essential amino acid, Invitrogen-11140076; 2 mM L-GLUTAMINE, Invitrogen-25030081; 300 µg/ml Geneticin, Invitrogen-10131027 • 2.2 Reagents: • Trypsin (I Invitrogen-25300062) • DPBS (Hyclone-SH30028.01B) • DMSO (Sigma-D2650-100ML) • 96-well cell-culture plate (Corning-3599) • CO2 incubator (HERA-CELL-240) • 20×SSC (Bio-serve Co. Ltd) • Tris-HCl (Aldirch-154563-1KG) • NaOH (Sinopharm 10019718) • NaCl (Sinopharm 10019308) • Hybridization solution (Major BioTech Co. Ltd, IMMUNE GOLD-HYB-500) • DIG Wash and Block Buffer set (Roche-11585762001) • Anti-digoxigenin-AP, Fab fragments from sheep (Roche-11093274910) • 2.3 Materials and Instruments: • Positively-Charged Nylon Membrane (GE-RPN2250B) • Transfer Membrane Instrument (Bio-Rad, 170-6545) • Hybridization Oven (HL-2000 Hybrilinker) • 3. Testing steps and Methods: • 3.1 HepG2.2.15 cells (4×10^4 cells/well) were planted into a 96-well plate, and at 37° C., 5% CO2 cultured overnight. • 3.2 On Day 2, the compounds were diluted in totally 6 concentrations with a dilution gradient of five times. The compounds at different concentrations were added into the culture wells in duplicate. The final concentration of DMSO in the culture media was 1%. 1 μM GLS4 was used as 100% inhibition control; 1% DMSO as 0% inhibition control. • 3.3 On Day 5, replacing with the fresh culture media containing the compound was performed. • 3.4 On Day 8 and Day 9, the culture media in the culture wells was removed, and the cells were harvested for dot-blot hybridization. • The lysate was added into a culture well, and at 37° C. incubating for half an hour to disintegrate cells; the supernatant was obtained by centrifugation and transferred into a new microplate; a denaturation solution was added, after sufficient mixing the denatured sample was transferred and imprinted onto a Nylon membrane, the nucleic acid was fixed onto the membrane by UV cross-linking. • Pre-hybridization: the membrane was incubated at 60° C. in a hybridization solution for 1 hour. • Hybridization: heating the denatured digoxin-labelled HBV DNA probe and incubating at 60° C. overnight. • Membrane Washing: performing high strigency washing twice, low strigency washing for 3 times. • Blocking: incubating the membrane at room temperature in a blocking solution for 30-60 minutes. • Hybridization: diluting the Antibody Solution with the blocking solution, in which the membrane was placed and incubated at room temperature for 30-60 minutes. • Developing: washing the membrane in a Detection Buffer for 5 minutes, followed by adding a developing solution, pressing and exposing. • The photos was saved in tiff format, and a gray value of the dot was quantified with quantity one software. • 3.5 Data Analysis: • 3.5.1 The inhibition percentage was calculated: % Inh.=[1−(sample dot gray value−1 μM GLS4 dot gray value 1)/(DMSO control dot gray value−1 μM GLS4 dot gray value 1)]×100. • 3.5.2 Calculating EC50: the concentration of the compound for 50% inhibition of HBV (EC50) was calculated by using GraphPad Prism Software. • 4.

Row | SMILES | EC50 [µM]
1 | CCOC(=O)C1=C2CN(C)C(=O)CN2C(c2nccs2)=NC1c1ccc(F)cc1Br (racemic) [Example 105] | 0.5 to 1
2 | CCOC(=O)C1=C2CCOC(=O)N2C(c2nccs2)=NC1c1ccc(F)cc1Br (racemic) [Example 107] | 0.1 to 0.5
3 | CCOC(=O)C1=C2CCCC(=O)N2C(c2nccs2)=N[C@H]1c1ccc(F)cc1Br (racemic) [Example 108] | 1 to 5
4 | CCOC(=O)C1=C2CCCCN2C(c2nccs2)=NC1c1ccc(F)cc1Cl (racemic) [Example 109] | 1 to 5
5 | CCOC(=O)C1=C2COCCN2C(c2nccs2)=NC1c1ccc(F)cc1Br (racemic) [Example 110] | 1 to 5
6 | CCOC(=O)C1=C2CCOC(=O)N2C(c2nccs2)=NC1c1ccc(F)cc1Cl (racemic) [Example 111] | 1 to 5
7 | CCOC(=O)C1=C2CCN2C(c2nccs2)=NC1c1ccc(F)cc1Br (racemic) [Example 112] | 1 to 5
8 | CCOC(=O)C1=C2CCCN2C(c2nccs2)=N[C@H]1c1ccc(F)cc1Br [Example 5] | 0.1 to 0.5
9 | CCOC(=O)C1=C2C[C@@H](CO)CN2C(c2nccs2)=N[C@H]1c1ccc(F)cc1Br [Example 6] | < 0.1
10 | CCOC(=O)C1=C2C[C@H](CO)CN2C(c2nccs2)=N[C@H]1c1ccc(F)cc1Br [Example 7] | 0.1 to 0.5
11 | CCOC(=O)C1=C2C[C@@H](CC(=O)O)CN2C(c2nccs2)=N[C@H]1c1ccc(F)cc1Br [Example 13] | 0.1 to 0.5
12 | CCOC(=O)C1=C2C[C@H](CC(=O)O)CN2C(c2nccs2)=N[C@H]1c1ccc(F)cc1Br [Example 14] | 0.5 to 1
13 | CCOC(=O)C1=C2C[C@H](CN3CCOCC3)CN2C(c2nccs2)=N[C@H]1c1ccc(F)cc1Br [Example 15] | 0.1 to 0.5
14 | CCOC(=O)C1=C2C[C@@H](CN3CCOCC3)CN2C(c2nccs2)=N[C@H]1c1ccc(F)cc1Br [Example 16] | 1 to 5
15 | CCOC(=O)CN(C)C[C@@H]1CC2=C(C(=O)OCC)[C@H](c3ccc(F)cc3Br)N=C(c3nccs3)N2C1 [Example 19] | 1 to 5
16 | CCOC(=O)CN(C)C[C@H]1CC2=C(C(=O)OCC)[C@H](c3ccc(F)cc3Br)N=C(c3nccs3)N2C1 [Example 20] | 1 to 5
17 | CCOC(=O)C1=C2C[C@@H](CN3CCC[C@H]3C(=O)OC)CN2C(c2nccs2)=N[C@H]1c1ccc(F)cc1Br [Example 21] | 1 to 5
18 | CCOC(=O)C1=C2C[C@H](CN3CCC[C@H]3C(=O)OC)CN2C(c2nccs2)=N[C@H]1c1ccc(F)cc1Br [Example 22] | 1 to 5
19 | CCOC(=O)C1=C2C[C@H](C#N)CN2C(c2nccs2)=N[C@H]1c1ccc(F)cc1Cl [Example 24] | 0.5 to 1
20 | CCOC(=O)C1=C2C[C@@H](C#N)CN2C(c2nccs2)=N[C@H]1c1ccc(F)cc1Cl [Example 25] | 1 to 5
21 | CCOC(=O)C1=C2C[C@@H](C(N)=O)CN2C(c2nccs2)=N[C@H]1c1ccc(F)cc1Cl [Example 30] | 0.1 to 0.5
22 | CCOC(=O)C1=C2C[C@H](C(N)=O)CN2C(c2nccs2)=N[C@H]1c1ccc(F)cc1Cl [Example 31] | 0.1 to 0.5

Same assay, conditions: Hepatitis B virus, HepG2.2.15, summary list of target compounds, Examples 1-165 (same as Table 2), read-out: BIOACTIVITY (inhibitory actions on HBV DNA, EC50)

Row | SMILES | EC50 [µM]
23 | CCOC(=O)C1=C2CN(C)C(=O)CN2C(c2nccs2)=NC1c1ccc(F)cc1Br (racemic) [Example 105] | 0.5 to 1
24 | CCOC(=O)C1=C2CCOC(=O)N2C(c2nccs2)=NC1c1ccc(F)cc1Br (racemic) [Example 107] | 0.1 to 0.5
25 | CCOC(=O)C1=C2CCCC(=O)N2C(c2nccs2)=N[C@H]1c1ccc(F)cc1Br (racemic) [Example 108] | 1 to 5
26 | CCOC(=O)C1=C2CCCCN2C(c2nccs2)=NC1c1ccc(F)cc1Cl (racemic) [Example 109] | 1 to 5
27 | CCOC(=O)C1=C2COCCN2C(c2nccs2)=NC1c1ccc(F)cc1Br (racemic) [Example 110] | 1 to 5
28 | CCOC(=O)C1=C2CCOC(=O)N2C(c2nccs2)=NC1c1ccc(F)cc1Cl (racemic) [Example 111] | 1 to 5
29 | CCOC(=O)C1=C2CCN2C(c2nccs2)=NC1c1ccc(F)cc1Br (racemic) [Example 112] | 1 to 5
30 | CCOC(=O)C1=C2CCCN2C(c2nccs2)=N[C@H]1c1ccc(F)cc1Br [Example 5] | 0.1 to 0.5
31 | CCOC(=O)C1=C2C[C@@H](CO)CN2C(c2nccs2)=N[C@H]1c1ccc(F)cc1Br [Example 6] | < 0.1
32 | CCOC(=O)C1=C2C[C@H](CO)CN2C(c2nccs2)=N[C@H]1c1ccc(F)cc1Br [Example 7] | 0.1 to 0.5
33 | CCOC(=O)C1=C2C[C@@H](CC(=O)O)CN2C(c2nccs2)=N[C@H]1c1ccc(F)cc1Br [Example 13] | 0.1 to 0.5
34 | CCOC(=O)C1=C2C[C@H](CC(=O)O)CN2C(c2nccs2)=N[C@H]1c1ccc(F)cc1Br [Example 14] | 0.5 to 1
35 | CCOC(=O)C1=C2C[C@H](CN3CCOCC3)CN2C(c2nccs2)=N[C@H]1c1ccc(F)cc1Br [Example 15] | 0.1 to 0.5
36 | CCOC(=O)C1=C2C[C@@H](CN3CCOCC3)CN2C(c2nccs2)=N[C@H]1c1ccc(F)cc1Br [Example 16] | 1 to 5
37 | CCOC(=O)CN(C)C[C@@H]1CC2=C(C(=O)OCC)[C@H](c3ccc(F)cc3Br)N=C(c3nccs3)N2C1 [Example 19] | 1 to 5
38 | CCOC(=O)CN(C)C[C@H]1CC2=C(C(=O)OCC)[C@H](c3ccc(F)cc3Br)N=C(c3nccs3)N2C1 [Example 20] | 1 to 5
39 | CCOC(=O)C1=C2C[C@@H](CN3CCC[C@H]3C(=O)OC)CN2C(c2nccs2)=N[C@H]1c1ccc(F)cc1Br [Example 21] | 1 to 5
40 | CCOC(=O)C1=C2C[C@H](CN3CCC[C@H]3C(=O)OC)CN2C(c2nccs2)=N[C@H]1c1ccc(F)cc1Br [Example 22] | 1 to 5
41 | CCOC(=O)C1=C2C[C@H](C#N)CN2C(c2nccs2)=N[C@H]1c1ccc(F)cc1Cl [Example 24] | 0.5 to 1
42 | CCOC(=O)C1=C2C[C@@H](C#N)CN2C(c2nccs2)=N[C@H]1c1ccc(F)cc1Cl [Example 25] | 1 to 5
43 | CCOC(=O)C1=C2C[C@@H](C(N)=O)CN2C(c2nccs2)=N[C@H]1c1ccc(F)cc1Cl [Example 30] | 0.1 to 0.5
44 | CCOC(=O)C1=C2C[C@H](C(N)=O)CN2C(c2nccs2)=N[C@H]1c1ccc(F)cc1Cl [Example 31] | 0.1 to 0.5
